Experimental data from patent US7425568B2, “Compounds, which are potent inhibitors of Na+ /Ca2+ exchange mechanism and are useful in the treatment of arrhythmias” (Orion Corporation, priority 2001, dated 2008).

Tested on: ouabain-induced arrhythmias in guinea-pig papillary muscles
Assay: Inhibition of ouabain-induced arrhythmias (aftercontractions) in isolated guinea-pig papillary muscles
Settings: for maximum amplitude of aftercontractions #1: n=5, vehicle 143±54 mg
Experimental: The effects of the compounds of the invention were tested on ouabain-induced arrhythmias in guinea-pig papillary muscles.
Guinea-pig papillary muscles were mounted into horizontal muscle cuvette. A hook connected to force transducer was attached to another end of the muscle. Muscle preparations were electrically paced at 1 Hz with field stimulation via platinum electrodes. Modified Tyrode solution was used for superfusion of muscle preparations. The composition of the Tyrode solution was the following (mM): NaCl 135, MgCl2×6H2O 1, KCl 5, CaCl2×2H2O 2, NaHCO3 15, Na2HPO4×2H2O 1, and glucose 10. The Tyrode solution was gassed with carbogen (95% O2, 5% CO2) to set pH at 7.4. Experiments were carried out at 37° C. Acquisition and analysis of twitch tensions with Action Potential and Force Measurement System (ACFO v1.0, Fision Ltd, Finland).
Ouabain by blocking of sodium-potassium ATPase increase intracellular sodium which is changed for calcium via NCX. Increased intracellular calcium is leading to overload of sarcoplasmic reticulum (SR) and spontaneous calcium release from SR inducing delayed […] (DADs). Equivalence for DADs in force signal is aftercontractions (ACs) which are seen as spontaneous twitches after the pacing controlled twitch.
The compounds of the invention delayed appearance and decreased amplitude of aftercontractions.

| SMILES | appearance of aftercontractions (time to appearance) (30 μM, mean±SD, n=5, vehicle 25±8.9 min, p=0.013, paced at 1 Hz, 37° C) | maximum amplitude of aftercontractions #1 (30 μM, p=0.008) | maximum amplitude of aftercontractions #1 (10 μM, p=0.027) |
| --- | --- | --- | --- |
| CC(=O)Nc1ccc(Oc2ccc3c(c2)CCC(c2ccccc2)O3)nc1 (stereo not drawn) [Example 27] | 38 ± 7.5 min | 74 ± 16 mg |  |
| CS(=O)(=O)Nc1ccc(Oc2ccc3c(c2)CCC(c2cccc(F)c2)O3)nc1 (stereo not drawn) [Example 67, N-{6-[2-(3-Fluorophenyl)chroman-6-yloxy]pyridin-3-yl}methane Sulfonamide] |  |  | 88 ± 20 mg |
